# Measurements taken from patent US7067488B2, “Modified GLP-1 peptides with increased biological potency” (TheraTechnologies Inc., priority 2002, dated 2006).
# Experiments:
# RINm5F cells = assay: cAMP production in RINm5F cells; assay type: cell-based; conditions: Mean ± SD; for IC50: 40 minutes incubation with peptide, 0.5 mM IBMX
# Experimental: RINm5F cells (ATCC # CRL-2058) were grown to confluence and used 4 days following confluency. Aqueous stock solutions (1 mM) of GLP-1, 5, 8, 16, and 17, also containing 0.1% BSA, were made prior to the assay. Cells were pre-incubated with 100 μl RPMI containing 0.5 mM IBMX for 10 minutes at 37° C. Diluted (10^−5 to 10^−11 M) peptides (100 μl) were added to the wells and incubated for 40 minutes. At the end of the incubation period, the supernatant was collected and assayed for cAMP using a radioimmunoassay kit (Diagnostic Product Corporation). Maximal responses (pmol/mg protein) and IC50 (nM) values were evaluated from the dose-response curves and data presented in Table 3.
# db/db mice = assay: OGTT in diabetic mice (db/db); assay type: in vivo; conditions: 5 μG/mouse ip
# Experimental: An OGTT was conducted as described in Example 3. Peptides were injected intra-parentally (ip) at 5 μG/mouse doses.
# Sprague-Dawley rats = assay: Intraperitoneal glucose tolerance test (IPGTT), plasma insulin levels in Sprague-Dawley rats; assay type: in vivo; conditions: 10 μg/rat iv
# Experimental: Sprague-Dawley rats (300–350 g) were fasted overnight, and injected with 1 g/kg glucose (2 ml) (over 15–20 seconds), and blood glucose levels were determined at different times during a period of 3 hours using a portable glucometer. The drugs (10 μg/rat) were dissolved in saline and injected into the femoral vein 5 minutes before the injection of glucose. Thus 0 time represents blood glucose and insulin levels after drug administration but before glucose injection. Plasma insulin levels were determined using a radioimmunoassay kit (Linco). […] The insulinogenic index was calculated as delta insulin (pM)/delta glucose (mM).
# CD-1 normal female mice = conditions: 1 μg dose ip, CD-1 mice
# Experimental: An OGTT was done as described above. Plasma insulin levels were determined using a commercial RIA kit (Linco Research).
# [1] = cited from earlier work
IC50 (RINm5F cells),Substance,Maximal Response (RINm5F cells),accelerating glucose disposal compared to GLP-1 (db/db mice),further results
8.7 ± 9.8 nM,[H7] 3-aminophenyl acetic acid GLP-1 (7–37) COOH [Compound 5],20.0 ± 6.9 pmol/mg protein,–,–
10.2 ± 7.7 nM,[H7] 3-aminophenyl acetic acid GLP-1 (7–36) CONH2 [Compound 16],13.8 ± 3.6 pmol/mg protein,–,–
–,[H7] 3-methoxyphenyl acetic acid GLP-1 (7–37) COOH [Compound 7],–,performed better than GLP-1,effect on glucose disposal (CD-1 normal female mice): no effect on glucose disposal
6.4 ± 3.8 nM,GLP-1 (7–37) OH [reference compound],17.6 ± 5.1 pmol/mg protein,–,"order of efficacy (Sprague-Dawley rats): 15=5>7=GLP-1>8=vehicle; half-life of circulating GLP-1 ([1]; Kreymann et al., 1987): about 4 minutes; metabolic clearance rate ([1]; active GLP-1 (Holst, 1994)): 12 to 13 min; plasma half-life ([1]; active GLP-1 (Holst, 1994)): < 5 min"
–,"[H7] (1S, 2S) 2-ethylcyclopropyl acetic acid GLP-1 (7–37) COOH [Compound 15]",–,performed better than GLP-1,–

Substance,IC50 (RINm5F cells),Maximal Response (RINm5F cells),accelerating glucose disposal compared to GLP-1 (db/db mice),further results
[H7] Salicylic acid GLP-1 (7–37) COOH [Compound 8],13.9 ± 15.6 nM,25.1 ± 11.9 pmol/mg protein,performed better than GLP-1,order of efficacy (Sprague-Dawley rats): 15=5>7=GLP-1>8=vehicle
[H7] Salicylic acid GLP-1 (7–37) CONH2 [Compound 17],13.2 ± 5.2 nM,21.9 ± 2.1 pmol/mg protein,–,–
